In US6797461B2, “Tryptase substrates and assay for tryptase activity using same” (Promega Corporation, priority 2000, dated 2004):
Residues, ends and D or L forms follow the SMILES beside them. *: point of attachment. ACC = NC(=O)Cc1cc(=O)oc2cc(N*)ccc12

Legend:
Format in all cases: biochemical
[1] = target: T1, recombinant human β-I tryptase (skin tryptase) (Homo sapiens, UniProt Q15661); experiment: Single substrate kinetic analysis of fluorogenic ACC substrates, skin (β-I) tryptase
T1 construct: Secreted mature βI- and βII-tryptases were purified to homogeneity; made in house; host or cells: Pichia pastoris
Method: (§1) βI- and βII-tryptase concentrations ranged from 5 nM to 15 nM. The final concentration of substrate ranged from 5 μM to 200 μM; the concentration of DMSO in the assay was less than 5%. Hydrolysis of ACC substrates was monitored fluorometrically with an excitation wavelength of 380 nm and an emission wavelength of 460 nm on a Fluoromax-2 spectrofluorimeter.
(§2) Tryptase activity was monitored at 30° C. in assay buffer containing 100 mM HEPES, pH 7.5, 10% w/v glycerol, and 0.1 mg/ml heparin. Substrate stock solutions were prepared in DMSO. The final concentration of substrate ranged from 5 μM to […], the concentration of DMSO in the assay was less than 5%. Tryptase concentration was 5 nM.
(§3) Hydrolysis of ACC substrates was monitored fluorometrically with an excitation wavelength of 380 nm and emission wavelength of 450 nm on a Fluoromax-2 spectrofluorimeter. The amino-terminus of each polypeptide was acetylated.
(§4) To quantitate tryptase βI and βII dependence on extended substrate specificity, several peptide substrates were synthesized and the kinetic constants determined for each of the enzymes. […] All of these effects are manifested in the Km term, not the kcat term.
(§5) Kinetic parameters were independently obtained for both recombinant β-I and β-II tryptases against rational substitutions in the substrates at P2-P4 positions.

[2] = target: T2, recombinant human β-II tryptase (lung tryptase) (Homo sapiens, N132K); experiment: Single substrate kinetic analysis of fluorogenic ACC substrates, lung (β-II) tryptase
T2 construct: Secreted mature βI- and βII-tryptases were purified to homogeneity; made in house; host or cells: Pichia pastoris GS115
Method: as §1, §2, §3, §4, §5

[3] = system: non-tryptase proteolysis in human serum; experiment: Non-tryptase proteolytic activities in serum with protease inhibitors (FIG. 9); conditions: 25 μg/ml, 30 minutes at room temperature, Ac-PRNK-ACC 100 μM
Method: Human recombinant β-I tryptase (Promega) was two-fold serially diluted in human serum from 10,000 pg to 190 pg/ml. Aprotinin, Soybean trypsin inhibitor (SBTI) or anti-trypsin was added to each dilution at 25 μg/ml and allowed to incubate at room temperature for 30 minutes. An uninhibited serum standard curve was similarly created. 100 μl of each treated and untreated serum dilution was pipetted in triplicate to a microtiter well plate. Ac-PRNK-ACC (SEQ. ID. NO: 12) was added to 100 μM and the plate incubated at room temperature for 10 minutes prior to reading at an excitation wavelength of 355 nm and emission wavelength of 460 nm.

[4] = Skin (β-I) Tryptase, 30° C., 100 mM HEPES pH 7.5, 10% glycerol, 0.1 mg/ml heparin
[5] = Lung (β-II) Tryptase, 30° C., 100 mM HEPES pH 7.5, 10% glycerol, 0.1 mg/ml heparin

T1 sequence (Q15661 31-275): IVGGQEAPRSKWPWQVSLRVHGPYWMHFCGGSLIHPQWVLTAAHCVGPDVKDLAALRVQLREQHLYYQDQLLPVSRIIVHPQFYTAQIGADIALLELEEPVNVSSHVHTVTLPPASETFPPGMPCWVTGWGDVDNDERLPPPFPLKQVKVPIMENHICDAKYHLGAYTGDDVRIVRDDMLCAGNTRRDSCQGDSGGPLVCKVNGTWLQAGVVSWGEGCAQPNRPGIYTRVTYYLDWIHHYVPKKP
T2 sequence (Q15661 31-275 N132K): as the sequence (Q15661 31-275) above, with N102K counted along it

## Ac-PANK-ACC: acetylated tetrapeptide P-A-N-K with C-terminal 7-amino-4-carbamoylmethyl-coumarin leaving group
[1]; [4]
  Km: 133 ± 15.6 µM
  kcat: 19.06 ± 0.64 s⁻¹
[2]; [5]
  Km: 110 ± 9.8 µM
  kcat: 20.27 ± 0.48 s⁻¹

## aprotinin
[3]
  effect on intrinsic fluorescence associated with non-tryptase proteolysis in serum: significantly and specifically diminished

## CC(=O)N1CCC[C@H]1C(=O)N[C@@H](CCCNC(=N)N)C(=O)N[C@H](C(=O)N[C@@H](CCCCN)C(=O)Nc1ccc2c(CC(N)=O)cc(=O)oc2c1)[C@@H](C)O [Ac-PRTK-ACC] (Ac-PRTK-{ACC})
[1]; [4]
  Km: 23.4 ± 2.3 µM
[2]; [5]
  Km: 14.7 ± 1.4 µM

## CC(=O)N1CCC[C@H]1C(=O)N[C@@H](CCCNC(=N)N)C(=O)N[C@@H](CC(N)=O)C(=O)N[C@@H](CCCCN)C(=O)Nc1ccc2c(CC(N)=O)cc(=O)oc2c1 [Ac-PRNK-ACC, Acetyl-Prolyl-Arginyl-Asparaginyl-Lysyl-aminoacetamide coumarin] (Ac-PRNK-{ACC})
[1]; [4]
  Km: 14.5 ± 1.9 µM
[2]; [5]
  Km: 8.9 ± 0.9 µM

## CC(=O)N1CCC[C@H]1C(=O)N[C@@H](CCCNC(=N)N)C(=O)N[C@@H](CC(N)=O)C(=O)N[C@@H](CCCNC(=N)N)C(=O)Nc1ccc2c(CC(N)=O)cc(=O)oc2c1 [Ac-PRNR-ACC] (Ac-PRNR-{ACC})
[1]; [4]
  Km: 18.6 ± 2.6 µM
[1]; tryptase βI, range stated over tryptase βI and βII
  activity relative to Ac-PRNK-ACC substrate (kcat/Km): 70-90%
[2]; [5]
  Km: 16.5 ± 2.7 µM
[2]; tryptase βII, range stated over tryptase βI and βII
  activity relative to Ac-PRNK-ACC substrate (kcat/Km): 70-90%
